# Measurements taken from patent publication US20110021524A1, “COMPOSITIONS AND METHODS FOR TREATING CANCERS” (IRM LLC, priority 2008, published 2011).
# Counter-ions that a name gives are not always drawn. Like-named read-outs stand apart in the source and are kept apart here.
# Columns and labels:
# [1] = tested on: panel of 80 diverse kinases; settings: cited from earlier work
# [2] = tested on: BCR-ABL transformed cells; settings: read-out: IC50, cellular activity against BCR-ABL transformed cells; cited from earlier work
# [3] = tested on: Ba/F3.p210 cells; assay: Selection for resistant Ba/F3.p210 clones; assay type: cell-based; settings: 1 μM imatinib or 5 or 10 μM GNF-2; day nine
# [4] = tested on: 40 other tyrosine kinases; settings: cited from earlier work
# [5] = Pharmacokinetic parameters in mice; assay type: in vivo; settings: for bioavailability / concentration at 7 h: Balb/c, po, 20 mg/kg; for AUC(0-inf): oral, 5 mg/kg intravenously or 20 mg/kg orally
# Experimental: The compound plasma concentration at any given time point was determined by Liquid Chromatography/Mass Spectrometry (LC/MS/MS). Pharmacokinetic parameters were calculated by non-compartmental regression analysis using Winnonlin 4.0 software (Pharsight, Mountain View, Calif., USA).
# [6] = tested on: T315I BCR-ABL-mediated Stat5 phosphorylation; assay: T315I BCR-ABL-mediated Stat5 phosphorylation by flow cytometry; assay type: cell-based
# [7] = tested on: wild type BCR-ABL transduced bone marrow; assay: Bone marrow transduction/transplantation model, wild type BCR-ABL; assay type: in vivo, Balb/c mice; settings: 50 mg/kg twice daily for seven days, from day 7 after transplantation
# [8] = tested on: p-Stat5 in T315I BCR-ABL expressing bone marrow cells; assay: p-Stat5 positive bone marrow cells in T315I BCR-ABL transplantation model; settings: end of efficacy study; nilotinib 50 mg/kg, GNF-5 75 mg/kg b.i.d. alone or combined
# [9] = tested on: Ba/F3 cells co-expressing BCR-ABL p210 and luciferase; assay: In vivo efficacy in Ba/F3.p210 xenograft model; design: species or system SCID beige mice
# Experimental: Female SCID beige mice, 6-8 weeks of age (n=5 for each GNF-5-treated or vehicle control group) were injected via tail vein with 1×10^6 Ba/F3 cells co-expressing BCR-ABL p210 and luciferase. […] At days 5 and 7, bioluminescence was quantified using luciferin and an IVIS imaging system (Xenogen Corp., Alameda, Calif.).
# Disease was established in SCID beige mice by inoculation of Ba/F3 cells engineered to express wild-type p210 BCR-ABL and firefly luciferase, such that disease burden could be assessed after luciferin injection by non-invasive imaging using a Xenogen IVIS™ system. […] Responses were maintained within the 100 mg/kg group (T/C=17%) at day 7; however, the initial response to the 50 mg/kg b.i.d. regime was followed by a relapse (T/C of 66%) (FIG. 3A).
# [10] = tested on: phospho-Stat5 (downstream BCR-ABL signaling); assay: In vivo target modulation, phospho-Stat5 in bone marrow of Ba/F3.p210-bearing mice; settings: single dose 100 mg/kg; within 7 hours
# Experimental: Bone marrows were harvested after 3, 7 and 24 hours and were analyzed by flow cytometry for phospho-Stat5 levels using a specific phospho-Y694 antibody.
# [11] = tested on: T315I BCR-ABL transduced bone marrow; assay: Survival study, T315I BCR-ABL bone marrow transplantation model; assay type: in vivo, mice; settings: GNF-5 75 mg/kg b.i.d. or nilotinib 50 mg/kg b.i.d.; vehicle 22 days
# [12] = tested on: T315I BCR-ABL transduced bone marrow; assay type: in vivo; settings: b.i.d. nilotinib 50 mg/kg or GNF-5 75 mg/kg alone; seven days
# [13] = tested on: CML; settings: in vivo; cited from earlier work
# [14] = male, mouse, plasma, Balb/c mice, oral 20 mg/kg
compound,measurement,setting,value
"NC(=O)c1cccc(-c2cc(Nc3ccc(OC(F)(F)F)cc3)ncn2)c1 [GNF-2, 3-[6-(4-Trifluoromethoxy-phenylamino)-pyrimidin-4-yl]-benzamide]",inhibition of the biochemical activity of a panel of 80 diverse kinases,[1],did not inhibit
same,IC50,[2],140 nM
same,"emergence of resistant colonies, single agent",[3],emergence of resistant colonies
same,inhibition of the activity of 40 other tyrosine kinases in cellular assays,[4],did not inhibit
"O=C(NCCO)c1cccc(-c2cc(Nc3ccc(OC(F)(F)F)cc3)ncn2)c1 [GNF-5, N-(2-hydroxyethyl)-3-(6-(4-(trifluoromethoxy)phenylamino)pyrimidin-4-yl)benzamide]",T½,"[5]; Balb/c mice, oral 20 mg/kg",2.30 ± 0.10 h
same,bioavailability,"[5]; male, mouse, plasma, Balb/c mice, 20 mg/kg oral vs 5 mg/kg intravenous, read-out: F (%)",44.8 ± 7.54%
same,concentration at 7 h,"[5]; male, mouse, plasma, Balb/c mice, oral 20 mg/kg, 7 hours, read-out: Clast",636 ± 121 nM
same,concentration at 7 h,"[5]; male, mouse, plasma, oral 20 mg/kg, Balb-C mice, read-out: concentration after 7 hours",630 ± 120 nM
same,bioavailability,"[5]; male, mouse, plasma, oral 20 mg/kg, Balb-C mice, read-out: oral bioavailability",44.8 ± 7.5%
same,AUC(0-inf),"[5]; male, mouse, plasma, Balb/c mice, route not given, read-out: AUC_inf (hrs * nM)",11.6 ± 1.96 µM·h
same,AUC(0-inf),"[5]; male, mouse, plasma, Balb/c mice, route not given, read-out: AUC_inf (min * ug/mL) (converted)",4870 ng·h/mL
same,Cmax,[5]; [14],4370 ± 1340 nM
same,Tmax,[5]; [14],0.5 h
same,Vd,"[5]; male, mouse, plasma, Balb/c mice, route not given, read-out: Vss",9.18 ± 1.82 L/kg
same,half-life,"[5]; male, mouse, plasma, oral 20 mg/kg, Balb-C mice, read-out: terminal half-life (converted)",2.3 h
same,maximum concentration,"[5]; oral 20 mg/kg, Balb-C mice",4.4 ± 1.3 µM
same,time of maximum concentration,"[5]; oral 20 mg/kg, Balb-C mice",0.5 h
same,effect on T315I BCR-ABL-mediated Stat5 phosphorylation,"[6]; 10 μM nilotinib or 1 μM GNF-5 alone, or the two combined",no effect
same,peripheral blood cell counts,[7],normal blood cell counts
same,spleen weight,[7],normal spleen weights
same,percentage of p-Stat5 positive BCR-ABL expressing bone marrow cells,[8],approx. 25%
same,tumor/control (T/C),"[9]; 50 mg/kg b.i.d. oral, day 7 (relapse)",66%
same,tumor/control (T/C),"[9]; 50 mg/kg b.i.d. oral, fifth day",16%
same,tumor/control (T/C),"[9]; 100 mg/kg b.i.d. oral, day 7",17%
same,tumor/control (T/C),"[9]; 100 mg/kg b.i.d. oral, fifth day",7%
same,tolerability of efficacious doses in vivo,[9]; 50 or 100 mg/kg b.i.d.,well-tolerated
same,pStat5 levels in bone marrow,[10],Significant reduction
same,median survival,[11],28 days
same,response compared to the vehicle group,[12],no significant response
Cc1ccc(NC(=O)c2ccc(CN3CCN(C)CC3)cc2)cc1Nc1nccc(-c2cccnc2)n1 [Imatinib mesylate],response rates in CML,[13],more than 96%
"Cc1cn(-c2cc(NC(=O)c3ccc(C)c(Nc4nccc(-c5cccnc5)n4)c3)cc(C(F)(F)F)c2)cn1 [nilotinib, reference compound]",effect on T315I BCR-ABL-mediated Stat5 phosphorylation,[6],no effect
same,percentage of p-Stat5 positive BCR-ABL expressing bone marrow cells,[8],approx. 25%
same,median survival,[11],32 days
same,response compared to the vehicle group,[12],no significant response
